These are literature values, as cited in patent publication US20110046396A1, “POLYMORPHIC FORMS OF FLUVASTATIN SODIUM AND PROCESS FOR PREPARING THE SAME” (JUBILANT ORGANOSYS LIMITED, priority 2005, published 2011).

The conditions of this data set: compared with Form A or the amorphous form of Fluvastatin sodium; described in U.S. Pat. No. 6,124,340.

As for `CC(C)n1c(/C=C/[C@H](O)C[C@H](O)CC(=O)[O-])c(-c2ccc(F)cc2)c2ccccc21.[Na+]` (racemic) [Form B, (±)-7-(3-(4-fluorophenyl)-1-(1-methylethyl)-1H-indol-2-yl)-3,5-dihydroxy-6-heptenoic acid monosodium salt], the hygroscopicity entry was “less hygroscopic than Form A or the amorphous form”.
